# Source: publication PMC3153577 (Biochemistry, 2011)
# Like-named read-outs stand apart in the source and are kept apart here.
# How the values were obtained:
# [1] = target: T1, MtDHFR-NADPH (Mycobacterium tuberculosis, UniProt P9WNX1); details: NADP^+ competition
# T1 sequence (P9WNX1 1-161): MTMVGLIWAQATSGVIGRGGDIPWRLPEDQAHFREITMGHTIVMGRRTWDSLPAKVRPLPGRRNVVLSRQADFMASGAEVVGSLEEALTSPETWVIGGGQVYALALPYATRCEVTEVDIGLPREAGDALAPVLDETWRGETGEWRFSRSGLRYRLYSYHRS
# [2] = target: T2, MtDHFR (Mycobacterium tuberculosis, UniProt P9WNX1)
# T2 sequence (P9WNX1 1-161): T1 sequence (P9WNX1 1-161)
# [3] = target: T3, MtDHFR-NADP^+ (Mycobacterium tuberculosis, UniProt P9WNX1); type: binding; details: for koff: competitor NADPH
# T3 sequence (P9WNX1 1-161): T1 sequence (P9WNX1 1-161)
# [4] = NADPH dissociation from MtDHFR-NADPH-THF
# [5] = NADPH dissociation from MtDHFR-NADPH
Structure (SMILES),"k−4, value obtained by analytical fitting [1, 4] [s⁻¹]","k−10, value obtained by analytical fitting [1, 5] [s⁻¹]","k4, best-fit value – global fitting ([2]; NADPH association to MtDHFR-THF, not determined experimentally) [µM⁻¹ s⁻¹]","k−10, best-fit value – global fitting [2, 5] [s⁻¹]","k−4, best-fit value – global fitting [2, 4] [s⁻¹]","k12, value obtained by analytical fitting ([3]; NADP^+ dissociation from MtDHFR-NADP^+-DHF, NADPH competition) [s⁻¹]","k3, value obtained by analytical fitting ([3]; NADP^+ dissociation from MtDHFR-NADP^+-THF, NADPH competition) [s⁻¹]","k9, value obtained by analytical fitting ([3]; NADP^+ dissociation from MtDHFR-NADP^+, NADPH competition) [s⁻¹]",koff ([3]; NADP^+ from MtDHFR-NADP^+-DHF) [s⁻¹],koff ([3]; NADP^+ from MtDHFR-NADP^+-THF) [s⁻¹],koff ([3]; NADP^+ from MtDHFR-NADP^+) [s⁻¹],"k−3, best-fit value – global fitting ([2]; NADP^+ association to MtDHFR-THF, not determined experimentally) [µM⁻¹ s⁻¹]","k−9, best-fit value – global fitting ([2]; NADP^+ association to free enzyme, linked to k9 based on KNADP = 0.33 μM) [µM⁻¹ s⁻¹]","k9, best-fit value – global fitting ([2]; NADP^+ dissociation from MtDHFR-NADP^+) [s⁻¹]","k12, best-fit value – global fitting ([2]; NADP^+ dissociation from MtDHFR-NADP^+-DHF) [s⁻¹]","k3, best-fit value – global fitting ([2]; NADP^+ dissociation from MtDHFR-NADP^+-THF) [s⁻¹]"
"NC(=O)C1=CN([C@@H]2O[C@H](COP(=O)(O)OP(=O)(O)OC[C@H]3O[C@@H](n4cnc5c(N)ncnc54)[C@H](OP(=O)(O)O)[C@@H]3O)[C@@H](O)[C@H]2O)C=CC1 [NADPH, nicotinamide adenine dinucleotide phosphate (reduced form)]",1.7 ± 0.6,0.13 ± 0.01,101,0.08 ± 0.01,1.1 ± 0.1,,,,,,,,,,,
"NC(=O)c1ccc[n+]([C@H]2O[C@@H](COP(=O)([O-])OP(=O)(O)OC[C@H]3O[C@@H](n4cnc5c(N)ncnc54)[C@H](OP(=O)(O)O)[C@@H]3O)[C@H](O)[C@@H]2O)c1 [NADP^+, nicotinamide adenine dinucleotide phosphate (oxidized form)]",,,,,,7.8 ± 0.1,8.02 ± 0.02,98 ± 4,7.8 ± 0.1,8.0 ± 0.1,97.6 ± 4.1,109 ± 6,268 ± 7,81 ± 2,2.1 ± 0.2,7.3 ± 0.1
